Experimental data published in patent EP2433624B1, “Use of buparvaquone for controlling mites parasitising honeybees” (Bimeda International Pharmaceuticals Limited, priority 2010, dated 2012).
Where “and” joins values, the source holds several entries; their conditions need not be identical. Equal entries are not always repeated.

Assays:
Varroa mites [1] = test: Toxicity to Varroa mites submerged in 3µL liquid in eppendorf tubes; format: in vivo; details: for mean number of live mites: day 3, 10 mites per tube
Procedure: Example 5 - Toxicity of BPQ A to Varroa mites
To assess the toxicity of BPQ to the Varroa mite
Varroa mites only feed on haemolymph of larvae and adult bees and thus would not ingest BPQ in a syrup/water solution. Therefore, it was necessary to identify a volume sufficient to permeate through the cuticle, but not drown the mites. After preliminary investigation it was concluded that 3µL/10 mites/eppendorf tube gave the maximum viability and the latter was used for this trial.
A total of 3µL of BPQ A/solvent was pipetted into each eppendorf tube. Ten mites taken from purple eye drone pupae were submerged in the liquid by tapping the tube gently and a fresh pupa was placed in each tube. 20 pinholes were made in each of the tubes and all samples were placed in the incubator at 30°C. Three replicates were made for each concentration and water was used in the control group. Concentrations of BPQ A and solvent were as described above (Section 1.1). The number of damaged or dead mites was counted on a daily basis. Damaged mites were mites that would not move in a coordinated fashion when touched gently 3 times with a fine brush.

honeybee larvae [2] = test: Toxicity of BPQ B to honeybee larvae when fed treated syrup; format: in vivo, Apis mellifera; details: colony fed treated syrup
Description: To measure the effect of treatment on developing larvae when fed syrup treated with BPQ powder, BPQ B, dissolved in the solvent (N-methyl pyrollidone) and diluted in an aqueous solution.
Apidae boxes were used to raise young queens and when virgin queens started to lay an area 6cm x 3cm were marked and missing cells were noted. The miniature colony was fed treated syrup, which was made by dissolving BPQ B powder in solvent, followed by serial dilutions using a sucrose solution (2 parts sugar: 1 part water). The concentrations administered are given below. Two replicates were carried out for the product, while 1 colony (apidae) was used for each of the solvent concentrations.

honeybee larvae [3] = test: Toxicity of BPQ A in an aqueous solution when sprayed on honeybee larvae; format: in vivo, Apis mellifera; details: summary statement
Procedure: Example 3 - Toxicity of BPQ A in an aqueous solution when sprayed on honeybee larvae (50mL liquid at a concentration of 50mg/mL - BPQ A)
To spray eggs/larvae with different concentrations of the active ingredient/solvent and examine the effect on development of the young larvae
Eggs/larvae of similar age were attained by placing the queen bee in a frame cage for 36 hrs. Once the frame was laid up, the queen was released and the frame was replaced in the colony for 3 days. The frame cage allowed worker bees to attend the larvae, but prevented the queen from laying in the frame. On day 3/4, when the eggs were changing to larvae, the frame was removed and divided temporarily in 6 x 5cm strips at either side using grease proof paper to facilitate the assessment of product and solvent. Within each strip, three 3.5cm x 2.5cm squares (approximately 30 cells) of grease proof paper was removed and the developing larvae sprayed with BPQ A/solvent at the concentrations described above.

Solubility in water = format: physicochemical
mammals = details: dosages many thousands of times higher than those in the invention; cited from earlier work
honeybees = test: Survival of bees sprayed with aqueous solutions of BPQ; format: in vivo, Apis mellifera; details: 20 bees per cage
Procedure: (§1) Example 7 - Toxicity of BPQ B to Varroa mites on honeybees when sprayed with an aqueous solution of the active ingredient
(§2) A total of 20 newly emerged Varroa infested bees were placed in hoarding cages. The cages were prepared as described in Section 1.0, except that the air vents were reduced in size using parafilm to prevent the Varroa mites escaping during the test period. The mean(±se) number of mites per 20 bees was estimated prior to commencement and an additional 10 mites per cage were added. Mites were collected and introduced as described above. The treatment solution was made by dissolving BPQ B in solvent, followed by two aqueous serial dilutions producing a concentration of 500µg/mL and 5µg/mL. From the latter, further serial dilutions were carried in water producing the following concentrations: • 0.5µg/mL. (C1-C3) • 0.05µg/mL. (D1-D3) • 0.005µg/mL. (E1-E3) • 0.0005µg/mL. (F1-F3) • 0.00005µg/mL (G1-G3)
(§3) Three replicates were established at each concentration plus a control group which were sprayed with water only. All test groups were fed 10mL of 1:1 sucrose:water solution and placed in the incubator at 32°C and monitored on a daily basis for the number of mites and number of bees knocked down. At the end of five day treatment period, the percentage efficacy of the treatment was estimated by treating bees in all cages with Apistan. % efficacy = mites knocked from treatment/total mites (treatment+Apistan)*100 [formula]

Varroa mites [4] = test: Efficacy of BPQ B against Varroa mites on honeybees sprayed with an aqueous solution; format: in vivo; details: summary statement
Procedure: as §1
To estimate the percentage efficacy of BPQ B at different concentrations when sprayed as an aqueous solution onto adult bees
as §2, §3

[5] = 0.00005µg/mL (g1-g3) aqueous solution sprayed
[6] = 0.0005µg/mL (f1-f3) aqueous solution sprayed
[7] = 0.005µg/mL (e1-e3) aqueous solution sprayed
[8] = 0.05µg/mL (d1-d3) aqueous solution sprayed
[9] = 0.5µg/mL (c1-c3) aqueous solution sprayed

## CC(C)(C)[C@H]1CC[C@H](CC2=C(O)C(=O)c3ccccc3C2=O)CC1 [BPQ, buparvaquone]
Varroa mites [1]; 0.00005µg/mL (g)
  mean number of live mites: 8.66±1.73
Varroa mites [1]; 0.0005µg/mL (f)
  mean number of live mites: 7.66±1.33
Varroa mites [1]; 0.5µg/mL
  mean number of live mites: 3.33±2.4
Varroa mites [1]; summary statement
  toxicity to free living Varroa mites: highly toxic
Honeybee larvae [2]
  development of developing larvae: no negative effects
Honeybee larvae [3]
  toxicity to bee larvae: non-toxic
Solubility in water
  solubility in water: completely insoluble
mammals
  neurotoxic effect: no neurotoxic effect whatsoever
honeybees; [5]
  Bees remaining: 18 and 17 and 20
  Survival rate on bees, Day 1: 20
  Survival rate on bees, Day 2: 19 and 20
  Survival rate on bees, Day 3: 19 and 17 and 20
  Survival rate on bees, Day 4: 19 and 17 and 20
  Survival rate on bees, Day 5: 19 and 17 and 20
  Survival rate on bees, Day 6: 18 and 17 and 20
honeybees; [6]
  Bees remaining: 20 and 19 and 18
  Survival rate on bees, Day 1: 20
  Survival rate on bees, Day 2: 20 and 19 and 18
  Survival rate on bees, Day 3: 20 and 19 and 18
  Survival rate on bees, Day 4: 20 and 19 and 18
  Survival rate on bees, Day 5: 20 and 19 and 18
  Survival rate on bees, Day 6: 20 and 19 and 18
honeybees; [7]
  Bees remaining: 19 and 20
  Survival rate on bees, Day 1: 20
  Survival rate on bees, Day 2: 20
  Survival rate on bees, Day 3: 19 and 20
  Survival rate on bees, Day 4: 19 and 20
  Survival rate on bees, Day 5: 19 and 20
  Survival rate on bees, Day 6: 19 and 20
honeybees; [8]
  Bees remaining: 20 and 19
  Survival rate on bees, Day 1: 20
  Survival rate on bees, Day 2: 20 and 19
  Survival rate on bees, Day 3: 20 and 19
  Survival rate on bees, Day 4: 20 and 19
  Survival rate on bees, Day 5: 20 and 19
  Survival rate on bees, Day 6: 20 and 19
honeybees; [9]
  Bees remaining: 19 and 20
  Survival rate on bees, Day 1: 20
  Survival rate on bees, Day 2: 20 and 19
  Survival rate on bees, Day 3: 20 and 19
  Survival rate on bees, Day 4: 19 and 20
  Survival rate on bees, Day 5: 19 and 20
  Survival rate on bees, Day 6: 19 and 20
Varroa mites [4]
  effective, topical application: ~40%
